Experimental data published in PubChem BioAssay AID248 (DTP/NCI, 2004).
Several values for one entry are separate records, joined by “and”; a condition that tells them apart may be missing. Identical values can stand only once. Toxic doses and inconclusive results are not listed. Rule as the data show it: active = T/C of 150% or more; inactive = T/C below 125%.

Test system: L1210 leukemia ip in BDF1 mice, survival T/C
Assay: NCI In Vivo Anticancer Drug Screen. Data for tumor model L1210 Leukemia (intraperitoneal) in B6D2F1 (BDF1) mice
Conditions: endpoint: mean survival time, higher = longer survival
Summary of the method: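 Value reflects the ratio of survival in compound-treated mice to survival in vehicle-treated controls, with both groups carrying the same transplanted tumor.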

[1] = dose: 100.0 mg/kg/injection, schedule: Q04DX003 (ip), vehicle: Klucel (hydroxypropylcellulose) (HPC)
[2] = dose: 200.0 mg/kg/injection, schedule: Q04DX003 (ip), vehicle: Klucel (hydroxypropylcellulose) (HPC)
[3] = dose: 400.0 mg/kg/injection, schedule: Q04DX003 (ip), vehicle: Klucel (hydroxypropylcellulose) (HPC)
[4] = dose: 25.0 mg/kg/injection, schedule: Q04DX003 (ip), vehicle: Klucel (hydroxypropylcellulose) (HPC)
[5] = dose: 50.0 mg/kg/injection, schedule: Q04DX003 (ip), vehicle: Klucel (hydroxypropylcellulose) (HPC)
[6] = dose: 100.0 mg/kg/injection, schedule: Q04DX003 (ip), vehicle: saline with Tween-80
[7] = dose: 200.0 mg/kg/injection, schedule: Q04DX003 (ip), vehicle: saline with Tween-80
[8] = dose: 400.0 mg/kg/injection, schedule: Q04DX003 (ip), vehicle: saline with Tween-80
[9] = dose: 50.0 mg/kg/injection, schedule: Q01DX009 (ip), vehicle: Klucel (hydroxypropylcellulose) (HPC)
[10] = dose: 100.0 mg/kg/injection, schedule: Q01DX009 (ip), vehicle: Klucel (hydroxypropylcellulose) (HPC)
[11] = dose: 50.0 mg/kg/injection, schedule: Q01DX009 (ip), vehicle: saline with Tween-80
[12] = dose: 100.0 mg/kg/injection, schedule: Q01DX009 (ip), vehicle: saline with Tween-80
[13] = dose: 100.0 mg/kg/injection, schedule: Q01DX001 (ip), vehicle: saline
[14] = dose: 200.0 mg/kg/injection, schedule: Q01DX001 (ip), vehicle: saline
[15] = dose: 400.0 mg/kg/injection, schedule: Q01DX001 (ip), vehicle: saline
[16] = dose: 25.0 mg/kg/injection, schedule: Q01DX009 (ip), vehicle: Klucel (hydroxypropylcellulose) (HPC)

Measured: T/C

COc1cc(C(=O)N/N=C/N(C)C)cc(OC)c1OC
inactive: dose: 75.0 mg/kg/injection, schedule: Q01DX009 (ip), vehicle: Klucel (hydroxypropylcellulose) (HPC) 109 % of control | [1] 99 % of control | dose: 150.0 mg/kg/injection, schedule: Q01DX009 (ip), vehicle: Klucel (hydroxypropylcellulose) (HPC) 102 % of control | [2] 99 % of control | dose: 300.0 mg/kg/injection, schedule: Q01DX009 (ip), vehicle: Klucel (hydroxypropylcellulose) (HPC) 89 % of control | [3] 100 % of control

Nc1ccc(C(=O)N/N=C/c2ccc(Cl)cc2Cl)cc1
inactive: dose: 100.0 mg/kg/injection, schedule: Q04DX002 (ip), vehicle: Klucel (hydroxypropylcellulose) (HPC) 93 % of control | dose: 200.0 mg/kg/injection, schedule: Q04DX002 (ip), vehicle: Klucel (hydroxypropylcellulose) (HPC) 93 % of control

O=C(NCCCCN1CC1)C(=O)Nc1ccccc1
inactive: dose: 12.5 mg/kg/injection, schedule: Q04DX003 (ip), vehicle: Klucel (hydroxypropylcellulose) (HPC) 97 % of control | [4] 93 % of control | [5] 98 % of control | [1] 103 % of control

O=C(C1C2C=CC(CC2)C1C(=O)N1CCCCC1)N1CCCCC1 (configuration not stated)
inactive: [6] 96 % of control | [7] 100 % of control | [8] 96 % of control

CC(=O)OC(=O)C1C2CC3C(C2)C31 (configuration not stated)
inactive: dose: 6.25 mg/kg/injection, schedule: Q01DX009 (ip), vehicle: other 101 % of control | dose: 12.5 mg/kg/injection, schedule: Q01DX009 (ip), vehicle: other 97 % of control | dose: 25.0 mg/kg/injection, schedule: Q01DX009 (ip), vehicle: other 93 % of control

CC(=O)OC1C=CC(Oc2ccc([N+](=O)[O-])cc2)OC1CO (configuration not stated)
inactive: dose: 100.0 mg/kg/injection, schedule: Q04DX003 (ip), vehicle: saline 93 % of control | dose: 200.0 mg/kg/injection, schedule: Q04DX003 (ip), vehicle: saline 91 % of control | dose: 400.0 mg/kg/injection, schedule: Q04DX003 (ip), vehicle: saline 96 % of control

CN(C)CC(=O)NCCCCCCCCCCNC(=O)CN(C)C
inactive: dose: 10.0 mg/kg/injection, schedule: Q01DX Z (ip), vehicle: saline 88 % of control | dose: 30.0 mg/kg/injection, schedule: Q01DX Z (ip), vehicle: saline 96 % of control | dose: 100.0 mg/kg/injection, schedule: Q01DX Z (ip), vehicle: saline 97 % of control | dose: 300.0 mg/kg/injection, schedule: Q01DX Z (ip), vehicle: saline 102 % of control

CC(C)(SC(c1ccccc1)(c1ccccc1)c1ccccc1)C(N)C(=O)O (configuration not stated)
inactive: dose: 6.25 mg/kg/injection, schedule: Q01DX009 (ip), vehicle: saline 103 % of control | dose: 12.5 mg/kg/injection, schedule: Q01DX009 (ip), vehicle: saline 102 % of control | dose: 25.0 mg/kg/injection, schedule: Q01DX009 (ip), vehicle: saline 108 % of control

CCOC(=O)c1cnc(C)nc1NCc1ccccc1
inactive: dose: 100.0 mg/kg/injection, schedule: Q01DX001 (ip), vehicle: Klucel (hydroxypropylcellulose) (HPC) 101 % of control | dose: 200.0 mg/kg/injection, schedule: Q01DX001 (ip), vehicle: Klucel (hydroxypropylcellulose) (HPC) 103 % of control | dose: 400.0 mg/kg/injection, schedule: Q01DX001 (ip), vehicle: Klucel (hydroxypropylcellulose) (HPC) 113 % of control

COc1ccc(C=C2C(=O)NC(=O)NC2=O)cc1OC
inactive: [9] 92 % of control | [10] 96 % of control | dose: 200.0 mg/kg/injection, schedule: Q01DX009 (ip), vehicle: Klucel (hydroxypropylcellulose) (HPC) 96 % of control

Cc1ccc(N)c(Br)c1
inactive: [11] 99 % of control | [12] 97 % of control

CCOCCNc1ccc(S(=O)(=O)c2ccc(N)cc2)cc1N
inactive: [13] 95 % of control | [14] 90 % of control | [15] 97 % of control

O=c1oc2c3ccccc3c3ccccc3c2o1
inactive: [16] 113 % of control | [9] 103 % of control | [10] 94 % of control

Cc1ccc(Sc2cccc3c2C(=O)c2c(Sc4ccc(C)cc4)cccc2C3=O)cc1
inactive: [6] 86 % of control | [7] 91 % of control | [8] 88 % of control

CNCC1C(c2ccc(OC)cc2)C1c1ccc(OC)cc1 (configuration not stated)
inactive: dose: 12.5 mg/kg/injection, schedule: Q04DX002 (ip), vehicle: Klucel (hydroxypropylcellulose) (HPC) 102 % of control | dose: 25.0 mg/kg/injection, schedule: Q04DX002 (ip), vehicle: Klucel (hydroxypropylcellulose) (HPC) 108 % of control | dose: 50.0 mg/kg/injection, schedule: Q04DX002 (ip), vehicle: Klucel (hydroxypropylcellulose) (HPC) 94 % of control

CC[C@@H](O)C[C@H]1CCC[C@@]2(C[C@@H]3OC(=O)/C=C/[C@@](C)(O)[C@@H](O)[C@H](C)[C@@H](O)[C@H](OC4CCC(N(C)C)C(C)O4)[C@@H](O)[C@](C)(O)CCCCC/C=C/[C@@H]4CC(C)(C)O[C@@]4(O)C[C@H](O2)[C@H]3C)O1 (some centres not stated)
inactive: dose: 0.25 mg/kg/injection, schedule: Q04DX003 (ip), vehicle: saline 104 % of control | dose: 0.5 mg/kg/injection, schedule: Q04DX003 (ip), vehicle: saline 111 % of control | dose: 1.0 mg/kg/injection, schedule: Q04DX003 (ip), vehicle: saline 94 % of control | dose: 150.0 micrograms/kg/injection, schedule: Q01DX Z (sc), vehicle: steriod suspending solution 108 % of control | dose: 230.0 micrograms/kg/injection, schedule: Q01DX Z (sc), vehicle: steriod suspending solution 102 % of control | dose: 345.0 micrograms/kg/injection, schedule: Q01DX Z (sc), vehicle: steriod suspending solution 91 % of control

Cc1c2ccnc(-c3ccccc3)c2cc2c1[nH]c1ccccc12
inactive: dose: 31.3 mg/kg/injection, schedule: Q01DX Z (ip), vehicle: other 98 % of control | dose: 62.5 mg/kg/injection, schedule: Q01DX Z (ip), vehicle: other 101 % of control | dose: 100.0 mg/kg/injection, schedule: Q01DX001 (ip), vehicle: carboxymethylcellulose (CMC) 108 % of control | dose: 125.0 mg/kg/injection, schedule: Q01DX015 (oral), vehicle: carboxymethylcellulose (CMC) 102 % of control | dose: 125.0 mg/kg/injection, schedule: Q01DX Z (ip), vehicle: other 101 % of control | dose: 200.0 mg/kg/injection, schedule: Q01DX001 (ip), vehicle: carboxymethylcellulose (CMC) 103 % of control | dose: 250.0 mg/kg/injection, schedule: Q01DX015 (oral), vehicle: carboxymethylcellulose (CMC) 93 % of control | dose: 250.0 mg/kg/injection, schedule: Q01DX Z (ip), vehicle: other 91 % of control | dose: 400.0 mg/kg/injection, schedule: Q01DX001 (ip), vehicle: carboxymethylcellulose (CMC) 97 % of control | dose: 500.0 mg/kg/injection, schedule: Q01DX015 (oral), vehicle: carboxymethylcellulose (CMC) 93 % of control

Nc1cccc(C(=O)Nc2ccc(S(=O)(=O)F)cc2)c1
inactive: [13] 107 % of control | [14] 106 % of control | [15] 112 % of control

CCOC(=O)C1C2CCCCC21 (configuration not stated)
inactive: [13] 102 % of control | [14] 96 % of control

CCNC(Cc1ccccc1)c1ccc(OC)cc1 (configuration not stated)
inactive: [16] 97 % of control | [4] 110 % of control | [9] 94 % of control | [5] 102 % of control | [1] 98 % of control and 102 % of control

CC(=O)OC1CCC2(C)C(=CC=C3C2CCC2(C)C3CC(OC(C)=O)C2C(C)C2CCC(C)CN2C(C)=O)C1 (configuration not stated)
inactive: [11] 91 % of control | [12] 91 % of control

Oc1ccc(N=Cc2c(O)ccc3ccccc23)cc1
inactive: dose: 200.0 mg/kg/injection, schedule: Q01DX001 (ip), vehicle: other 90 % of control | dose: 400.0 mg/kg/injection, schedule: Q01DX001 (ip), vehicle: other 91 % of control

CCCCC(CC)COP(=S)(S)OCC(CC)CCCC.[Sn] (configuration not stated)
inactive: [1] 100 % of control | [2] 99 % of control | [3] 96 % of control

N=C(c1ccccc1)c1ccccc1
inactive: dose: 100.0 mg/kg/injection, schedule: Q01DX001 (ip), vehicle: saline with Tween-80 100 % of control | dose: 200.0 mg/kg/injection, schedule: Q01DX001 (ip), vehicle: saline with Tween-80 101 % of control | dose: 400.0 mg/kg/injection, schedule: Q01DX001 (ip), vehicle: saline with Tween-80 94 % of control

CONP(=O)(NOC)c1ccccc1
inactive: [13] 103 % of control | [14] 95 % of control | [15] 90 % of control
